Values joined by “and” are separate entries in the source; they are usually repeats but may differ in a detail not shown here. Identical values can stand only once. “Also recorded” adds a separate entry of the source.
Experiments:
[1] = Urinary excretion of pyritinol and its metabolites in patients; type: in vivo, human
From the text: It is believed that pyritinol elevates intracellular thiol concentrations thereby detoxifying the chloroethyl metabolites formed by ifosfamide. Pyritinol is metabolised by reduction of its centralised disulfide bond, presumably by glutathione reductase or a similar enzyme using GSH as its cofactor. Pyritinol is also known to be metabolised by S-methylation and S-oxidation into the following metabolites: [drawing 12] These metabolites are the excretable forms of pyritinol in urine. In patients not receiving ifosfamide treatment, virtually 100% of pyritinol will be excreted in its metabolised form into the urine. […] As was previously mentioned, without GSH as a cofactor, glutathione reductase is unable to reduce pyritinol into its metabolised form. It is therefore a further aspect of this invention to use the excretion of unmetabolised pyritinol as a biochemical marker for the onset of encephalopathy upon administration of ifosfamide.

plasma amine oxidase = assay: Inhibition of plasma amine oxidase (2-chlorethylamine oxidation to chloracetaldehyde, GC); type: biochemical; details: methylene blue 50 μM; 2-chlorethylamine 100 μg/ml; human or bovine plasma, 36° C., 1 hour
Method: Human or bovine plasma (2.0 ml) containing 2-chlorethylamine (100 μg/ml) was incubated in a shaking water bath at 36° C. for 1 hour. Aliquots (5 μl) were directly injected in to a Tenax packed gas chromatographic column maintained at 120° C. in a Perkin Elmer 3920B gas chromatograph. The product of 2-chlorethylamine oxidation by plasma amine oxidase, 2-chloracetaldehyde, was eluted at 9 minutes retention time. External calibration curves were used to determine concentrations of resulting chloracetaldehyde. […] The methylene blue is thus able to reduce the formation of chloracetaldehyde from 2-chlorethylamine by the plasma to 20% of that observed in the absence of methylene blue.

[2] = Therapeutic rescue of ifosfamide encephalopathy with methylene blue in a patient; type: in vivo, human; details: Example 1
Method: (§1) A patient diagnosed with advanced metastatic osteosarcoma began a five day chemotherapy regime. Treatment consisted of a total dosage of 12 g/m^2 ifosfamide with 80% (by weight, based on the weight of ifosfamide) mesna and adriamycin (65 mg/m^2) divided into two doses. They also received ZOFRAN™ brand ondansetron (antiemetic), 8 mg, by intravenous injection and 200 mg pyritinol three times per day orally. All parenteral medicaments were given in a total of 2 liters 5% glucose solution.
50 mg methylene blue, formulated at 2% w/v in water for injections, was administered by slow intravenous injection.
About 4 hours later, the 50 mg methylene blue dose was repeated to consolidate the earlier treatment.

[3] = Prophylaxis of ifosfamide encephalopathy with methylene blue in patients; type: in vivo, human
Method: (§2) After three weeks from the end of the first cycle, the patient who was the subject of Example 1 again was given the same chemotherapeutic regime, except that this time they received 50 mg oral capsules of methylene blue prophylactically three times a day for the full course of treatment.
With the following treatment, they received four 50 mg doses of oral methylene blue. Their cytotoxic chemotherapy comprised three 3.2 g doses of ifosfamide (6 g/m^2 total dose) split over 3 days. The ifosfamide was administered as a continuous infusion with mesna. They also received 50 mg/m^2 adriamycin in two separate doses on days 2 and 3. Additionally,they received pyritinol (200 mg) twice per day on each day of the four day treatment.
(§3) A patient was diagnosed with non small cell lung cancer. They later developed brain, lung and mediastinal and bone metastases. The course of treatment included surgery, irradiation of the brain and chemotherapy. Dosage amounts for chemotherapy were as follows: ifosfamide (1 g/m^2) given intravenously for days 1-3; mesna 60% of intravenous ifosfamide dosage plus 800 mg orally twice daily for days 1-3; VP-16 (100 mg) given orally for days 1-8 and methylene blue (50 mg) was administered orally as a loading dose on day 1, with 3×50 mg administered orally on days 1-4.
(§4) They received six cycles of ifosfamide treatment using the identical dosage requirements as in Example 4.
(§5) A patient was diagnosed with non small cell lung cancer with extensive mediastinal lymphnode metastases. They were originally prescribed a course of cisplatinum, VP-16 and velbe. […] Oral ifosfamide, VP-16, and methylene blue was then ordered, using the same dosage requirements as described in Example 4 above.
A patient with non small cell lung cancer with involvment of the thoracic wall and retroperitoneal disease began one cycle of ifosfamide/methylene blue chemotherapy.
(§6) A patient was diagnosed with extensive small cell lung cancer with pleural effusion. Patient was prescribed ifosfamide/Vp-16/methylene blue treatment.
(§7) At the request of the inventors, an independent clinical analysis was performed at the Northern Centre for Cancer Treatment, Newcastle Upon Tyne, United Kingdom, on a patient using a combintation of ifosfamide and methylene blue. A patient was diagnosed with adenocarcinoma of the oesophagus. They began chemotherapeutic treatment and was administered ifosfamide, Mitomycin C, and cisplatin. […] The patient eventually recovered. Upon administration of a third cycle of treatment, the patient was also given a prophylactic dosage of methylene blue.

[4] = CNS toxicity/encephalopathy in patients on ifosfamide without methylene blue; type: in vivo, human
Method: as §1
(§8) In 1990, a patient with metastatic leiomyosarcoma was treated for lung metastases with ifosfamide, adriamycin and dacarbazine. They had three cycles of therapy at the time.
(§9) In the second and third cycles, their dose of ifosfamide was 2 g/m^2 for three days.
as §7

metastatic osteosarcoma = assay: Tumour response to chemotherapy, osteosarcoma patient; type: in vivo, human; details: Example 2; ifosfamide/adriamycin chemotherapy with methylene blue prophylaxis
Method: as §1, §2

[5] = system: metastatic leiomyosarcoma; assay: Tumour response to chemotherapy, leiomyosarcoma patient; type: in vivo, human; details: Example 3; 1990, ifosfamide, adriamycin and dacarbazine, three cycles
Method: as §8, §9

[6] = system: non small cell lung cancer; assay: Tumour response to chemotherapy, non small cell lung cancer patients; type: in vivo, human; details: Example 4; ifosfamide, VP-16, methylene blue; four cycles
Method: as §3, §5

small cell lung cancer = assay: Tumour response to chemotherapy, small cell lung cancer patients; type: in vivo, human
From the text: as §4, §6

[7] = Nitrobenzyl pyridine (NBP) test of urine for alkylating metabolites of ifosfamide; type: in vivo, human
[8] = GCMS analysis of urine of patient receiving ifosfamide and methylene blue; type: in vivo, human
Method: 100 ml of urine from a patient having had received methylene blue (300 mg/day) and ifosfamide (3 mg/kg daily) was analysed. The urine was refluxed for 30 minutes with 2M hydrochloric acid in ethanol (50 ml). After sufficient heating, 50 mls each of H2 O and […] hexane were added, the mixture shaken. The organic phase was then reduced to dryness in vacuo on a rotary evaporator. The dry residue was reconstituted in 1M hexane (10 ml) and 1 μl aliquots were submitted to gas chromatography-mass spectrometry analysis (GCMS). A 16 meter OV-17 capillary column was used with a temperature programme set for 40° C. for 1 minute, 5° C. per minute gradient to 250° C. and 250° C. for 10 minutes. Electron impact mass spectra were obtained on the resulting chromatographic peaks of interest (See A, B, and C of FIG. 1). These peaks were analysed through a Fisons Autospec Q MASS LIB GCMS computer library of mass spectra developed by the Department of Organic Chemistry, University of Berne, Switzerland of known organic compounds (FIGS. 2-4).

[9] = intravenous ifosfamide; Martindale, 28th Edition, 1982; cited from earlier work
[10] = Example 3, ifosfamide + methylene blue, first cycle
[11] = Example 5, ifosfamide as in Example 4, six cycles

Cc1ncc(CSSCc2cnc(C)c(O)c2CO)c(CO)c1O [pyritinol]
form of pyritinol excreted in urine upon addition of methylene blue ([1]; ifosfamide plus methylene blue, leucomethylene blue or similar compound): metabolised forms of pyritinol will subsequently be excreted in the urine
form of pyritinol excreted in urine upon ifosfamide ([1]; upon administration of ifosfamide): solely in its unmetabolised non-reduced form

CN(C)c1ccc2nc3ccc(N(C)C)cc3[s+]c2c1.[Cl-] [methylene blue, 3,7-bis(dimethylamino)phenothiazin-5-ium chloride]
formation of chloracetaldehyde from 2-chlorethylamine by the plasma, relative to that in absence of methylene blue (plasma amine oxidase): 20%
inhibition of plasma amine oxidase by methylene blue (plasma amine oxidase): 80%
symptoms of encephalopathy next day ([2]; 50 mg dose repeated about 4 hours later, next day): no signs of confusion or other symptoms of encephalopathy
malaise and nausea after methylene blue ([2]; 50 mg slow intravenous injection, after 1 hour): The malaise and nausea which they had previously experienced were gone
patient's condition after methylene blue ([2]; 50 mg slow intravenous injection, after 1 hour, continued ifosfamide infusion): much calmer, coherent and able to articulate the fearful nature of their hallucinations
sleep/condition after repeated dose ([2]; second 50 mg dose, that night and next day): slept well and was much better the next day
disturbed nights during treatment ([3]; Example 2, 50 mg oral capsules three times a day prophylactically): no disturbed nights
symptoms of encephalopathy during prophylactic treatment ([3]; Example 3, four 50 mg oral doses, ifosfamide 6 g/m^2 total over 3 days, mesna, adriamycin, pyritinol, first cycle): no symptoms of encephalopathy were recorded during treatment
episodes of vomiting [3, 10]: one
malaise [3, 10]: no malaise
signs of encephalopathy during prophylactic treatment ([3]; Example 4, 50 mg oral loading dose day 1, 3×50 mg oral days 1-4, four cycles): No signs of encephalopathy after four cycles
signs of encephalopathy during prophylactic treatment ([3]; Example 5, dosage as in Example 4, six cycles): no signs of encephalopathy
signs of encephalopathy during prophylactic treatment ([3]; Example 6, oral ifosfamide, VP-16 and methylene blue, dosage as in Example 4, six cycles): Absolutely no signs of encephalopathy
CNS toxicity during prophylactic treatment ([3]; Example 7, dosage as in Example 4, one cycle): No CNS toxicity was exhibited
symptoms associated with encephalopathy during prophylactic treatment ([3]; Example 8, dosage as in Examples 4-7, six cycles): never developed the symptoms associated with encephalopathy
signs of encephalopathy during prophylactic treatment ([3]; Example 9, prophylactic methylene blue in third cycle, ifosfamide, Mitomycin C, cisplatin): no further signs of encephalopathy
patient's condition during prophylactic treatment ([3]; Example 9, third cycle): remained conscious and alert throughout treatment

O=P1(NCCCl)OCCCN1CCCl (stereo not drawn) [ifosfamide, N,3-bis(2-chloroethyl)tetrahydro-2H-1,3,2-oxazaphosphorin-2-amine 2-oxide]
signs of encephalopathy on ifosfamide ([4]; Example 1, 12 g/m^2 total ifosfamide, mesna, adriamycin, day three and next morning, before methylene blue): displayed signs of encephalopathy-type hallucinations; also recorded: still drowsy, disorientated and confused
encephalopathy on ifosfamide ([4]; Example 3, 1990, first cycle, ifosfamide, adriamycin and dacarbazine): mild encephalopatic signs (such as confusion and amnesia) short of psychosis
encephalopathy on ifosfamide ([4]; Example 3, 1990, second cycle, ifosfamide 2 g/m^2 for three days): psychotic and somnolent
encephalopathy on ifosfamide ([4]; Example 3, 1990, third cycle, ifosfamide 2 g/m^2 for three days): severely psychotic and had hallucinations which continued not only after the end of the cycle but also after discharge from hospital
encephalopathy on ifosfamide ([4]; Example 9, ifosfamide, Mitomycin C and cisplatin, following second cycle): developed ifosfamide encephalopathy, becoming drowsy and confused
lung metastases (lung scan) (metastatic osteosarcoma): lung metastases were almost gone
remission [5]: complete remission of the lung metastases
outcome [6]: died 6 months later due to tumour progression
Lambert/Eaton Syndrome (small cell lung cancer; [11]): rapidly improved
remission (small cell lung cancer; [11]): good partial remission
remission (small cell lung cancer; Example 8, ifosfamide/Vp-16/methylene blue, after six cycles): partial remission of the lung, lymphnode and liver metastases
remission (small cell lung cancer; Example 8, ifosfamide/Vp-16/methylene blue, after three cycles): partial remission in the primary and lymphnode metastases
NBP test of urine for alkylating metabolites of ifosfamide ([7]; Example 1, first cycle): positive
NBP test of urine for alkylating metabolites ([7]; Example 2, second cycle, with methylene blue): present
urinary metabolites identified by GCMS ([8]; Example 10, methylene blue 300 mg/day and ifosfamide 3 mg/kg daily, urine refluxed with HCl in ethanol): 2,2,2-trichlorethanal and 3-chloroproprionic acid ethyl ester and trichloracetic acid ethyl ester
novel urinary metabolites among patients treated with ifosfamide and methylene blue ([8]; patients treated with both ifosfamide and methylene blue): 2,2,2-trichlorethanol and trichloracetic acid and 3-chlorproprionic acid
patients experiencing CNS side effects, especially confusion and lethargy [9]: about 10%
